How the values were obtained:
[1] = molecular target: T1, CYP2E1 (Homo sapiens, UniProt P05181); assay: CYP2E1 inhibition assay (substrate MFC); format: in vitro ADME; settings: 0.0169 to […] tested, na = concentration-dependent inhibition not observed
T1 construct: purchased Gentest Corp; host or cells: insect cells (baculovirus)
Experimental: All determinations were performed in duplicate.

[2] = test system: patients who underwent percutaneous coronary intervention (PCI); assay: Randomized double-blinded study of P5P vs placebo in high-risk percutaneous coronary intervention (PCI); format: in vivo
Text: Inclusion criteria required prior determination for non-urgent PCI of a single-vessel lesion(s) and identification of ≧1 of the following clinical characteristics determining high risk for procedural-related ischemic complications (Califf R M, Abdelmeguid A E, Kuntz R E, Popma J J, Davidson C J, Cohen E A, Kleiman N S, Mahaffey K W, Topol E J, Pepine C J, et al. Myonecrosis after revascularization procedures. J Am Coll Cardiol 1998; 31:241-251; The ESPRIT Investigators. Novel dosing regimen of eptifibatide in planned coronary stent implantation: a randomised, placebo-controlled trial. Lancet 2000; 356:2037-2044): presence of an acute coronary syndrome (chest pain within 48 hours of PCI), recent AMI (≦7 days), diminished epicardial blood flow, angiographic thrombus, ejection fraction ≦30%, or vein graft lesion. In addition to any general contraindication to the PCI procedure or standard concomitant therapies, major exclusion criteria were creatine kinase (CK-MB) elevation above the upper limit of normal immediately before PCI, electrocardiographic evidence of atrial fibrillation or left bundle branch block, or evidence of any clinically significant abnormal laboratory finding (transaminases, bilirubin, or alkaline phosphatase >1.5 times the upper limit of normal or serum creatinine >1.8 mg/dl). Patients with elevated troponin measurements were permitted in the study provided that the peak troponin value was reported >24 hours before scheduled PCI, with documentation of a decreasing value before revascularization. […] Compliance and reasons for discontinued treatments were recorded for all patients.
Study end points and definitions—The primary objective of the study was to evaluate the feasibility of treatment with P5P as a cardioprotective agent in high-risk elective PCI. The primary end point of infarct size was evaluated by the trapezoidal rule (Press W H, Teukolsky S A, Vetterling W T, Flannery B P. Numerical Recipes. Cambridge, UK: Cambridge University Press, 1994:127-133.) using serial CK-MB enzyme measures performed at baseline and every 6 hours for 24 hours beginning immediately before initiation of PCI. The occurrence of myocardial ischemia within 24 hours after PCI was assessed as a secondary end point using continuous 12-lead electrocardiographic monitoring (Northeast Monitoring, Boston, Mass.). Evidence of periprocedural ischemia was defined as ST-segment depression of >100 μV within a 60-minute period of PCI, lasting ≧1 minute and separated from other episodes by 1 minute. Area under the curve ST-segment deviation was measured from the onset of the first to the last contrast injection. All cardiac markers and ST-segment monitoring data were analyzed by core laboratories blinded to treatment assignment (University of Maryland School of Medicine, Baltimore, Md.; Duke Ischemia Monitoring Laboratory, Durham, N.C.). Additional prespecified secondary end points included the 30-day composite and individual event rates of death; nonfatal infarction; new or worsening heart failure, or recurrent ischemia in addition to net clinical safety, which was defined as the absence of major adverse ischemic events; Thrombolysis In Myocardial Infarction (TIMI) major bleeding; and liver function or coagulation test abnormalities. Acute myocardial infarction (AMI) was defined as CK-MB elevation ≧3 times the upper limit of normal (upper limit of normal 7 ng/ml) and/or troponin T levels […] the upper limit of normal (upper limit of normal 0.1 ng/ml). If previous troponin (or CKMB) values were above the upper limit of normal, values were required to be 50% of the baseline measurement in addition to ≧2 times (≧3 times for CK-MB) the upper limit of normal to meet the definition of AMI. Routine chemistries, complete blood count, and coagulation assays were performed at baseline, 7 days, and 30 days after randomization. […]

[3] = molecular target: T2, CYP2C9 (Homo sapiens, UniProt P11712); assay: CYP2C9 inhibition assay (substrate MFC); format: in vitro ADME; settings: 0.0169 to […] tested, na = concentration-dependent inhibition not observed
T2 construct: purchased Gentest Corp; host or cells: insect cells (baculovirus)
Experimental: […]. […] All determinations were performed in duplicate.

T2 sequence (P11712 whole entry): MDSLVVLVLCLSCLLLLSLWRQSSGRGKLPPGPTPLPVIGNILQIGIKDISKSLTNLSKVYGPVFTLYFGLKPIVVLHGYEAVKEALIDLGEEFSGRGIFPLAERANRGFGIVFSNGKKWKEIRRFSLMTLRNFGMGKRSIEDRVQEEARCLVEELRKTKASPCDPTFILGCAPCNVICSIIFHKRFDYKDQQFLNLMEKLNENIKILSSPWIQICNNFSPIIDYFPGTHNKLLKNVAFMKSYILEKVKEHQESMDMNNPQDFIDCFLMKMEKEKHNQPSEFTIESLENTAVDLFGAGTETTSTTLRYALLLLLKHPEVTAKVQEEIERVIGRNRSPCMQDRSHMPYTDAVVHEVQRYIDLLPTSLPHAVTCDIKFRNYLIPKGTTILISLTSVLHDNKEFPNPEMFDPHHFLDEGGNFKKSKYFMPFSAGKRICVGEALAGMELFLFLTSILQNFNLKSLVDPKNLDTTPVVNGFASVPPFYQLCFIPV
T1 sequence (P05181 whole entry): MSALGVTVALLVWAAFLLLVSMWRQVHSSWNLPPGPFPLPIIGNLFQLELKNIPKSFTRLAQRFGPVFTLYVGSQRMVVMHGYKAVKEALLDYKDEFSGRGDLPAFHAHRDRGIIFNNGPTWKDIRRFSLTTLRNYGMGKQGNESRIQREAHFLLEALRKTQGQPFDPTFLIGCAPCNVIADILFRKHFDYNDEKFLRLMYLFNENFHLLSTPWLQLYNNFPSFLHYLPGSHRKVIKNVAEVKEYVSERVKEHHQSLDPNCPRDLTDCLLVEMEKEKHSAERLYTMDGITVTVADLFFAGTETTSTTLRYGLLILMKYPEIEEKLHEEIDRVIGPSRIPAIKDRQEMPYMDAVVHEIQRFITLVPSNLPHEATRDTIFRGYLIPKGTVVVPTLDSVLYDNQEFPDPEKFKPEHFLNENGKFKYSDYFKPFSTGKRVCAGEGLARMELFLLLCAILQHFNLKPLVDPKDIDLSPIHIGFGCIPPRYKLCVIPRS

Cc1ncc(COP(=O)(O)O)c(C=O)c1O [P5P, pyridoxal-5-phosphate]
Pyridoxal 5′-phosphate IC50 [1]: did not inhibit | safety issues related to treatment ([2]; 60 patients in safety analyses): No safety issues | Area under the curve ST deviation ([2]; 24 h continuous electrocardiographic ST-monitoring, median (interquartile range)): 1349 (951-2,263), μV-min | Any post-PCI ischemia ([2]; 24 h continuous electrocardiographic ST-monitoring, percent of patients): 14.7-34% | deaths ([2]; 30 days): no deaths | occurrence of 30-day nonfatal AMI ([2]; 30 days, vs 10.0% with placebo, p=1.0): 12.8% | 30-day composite adverse event rate (death, nonfatal AMI, new and/or worsening heart failure, or recurrent ischemia) ([2]; 30 days, vs 15.0% with placebo, p=1.0): 17.9% | abnormalities of routine chemistries or coagulation studies ([2]; at 7 and 30 days, vs placebo): no apparent differences | CK-MB max (mean) ([2]; mean per therapy subgroup, with or without adjunctive statin): 0.73 ng/mL | Time to peak CK-MB ([2]; median (interquartile range)): 11.0 (0-18.0), 36 h | Area under the curve CK-MB ([2]; median (interquartile range), P5P 10 mg/kg oral before PCI, then 5 mg/kg twice daily): 1.1 (0.5-2.4), 39 ng/ml | Change in troponin T ([2]; median (interquartile range), baseline to within 24 hours after PCI): 0 (0 = 0.7), 36 ng/ml | Periprocedural cardiac markers ([2]; median (interquartile range), enteric-coated P5P 10 mg/kg oral before PCI, then 5 mg/kg twice daily 14 days): 18.6 (10.2-34.5), | maximum periprocedural CK-MB level ([2]; patients receiving P5P vs placebo): significantly lower | need for blood product transfusion ([2]; vs 10.00% placebo, p=0.26): 2.5% | occurrence of major bleeding ([2]; vs 10.5% placebo, p=0.27): 2.8% | patients who discontinued drug therapy before completion of the prescribed 2 weeks ([2]; vs 25.0% placebo, p=0.77): 30.8% | median periprocedural CK-MB area under the curve (periprocedural infarct size, primary end point) ([2]; vs 32.9 with placebo, p=0.038): 18.6 ng/mL | Pyridoxal 5′-phosphate IC50 [3]: did not inhibit
